Legend:
[1] = system: first-line NSCLC patients; settings: erlotinib 150 mg/day plus gemcitabine and cisplatin compared with gemcitabine and cisplatin alone; cited from earlier work
[2] = system: non-small-cell lung cancer (NSCLC); assay: Clinical study BO16411: Tarceva plus gemcitabine/cisplatin versus placebo plus gemcitabine/cisplatin, with pMAPK/pAKT IHC biomarker subset; assay type: in vivo, human
Protocol: Biomarker analyses were performed on a sample subset of 141 patients, for which formalin-fixed paraffin embedded (FFPE) tissue blocks from initial diagnosis had been received.
One pathologist evaluated all immunostainings. The nuclear staining intensity (pAKT, pMAPK) was estimated by visual inspection in a four step scale (0, 1, 2, 3). In addition to nuclear staining intensity, the percentage of positive cells, and the reason for analysis failure (i.e. lack of tumor cells in the tissue spot or lack of the tissue spot on the TMA slide) was recorded. Exploratory Statistical Analysis:
The basic statistics and interdependencies of the different markers were descriptively investigated. Methodological analyses comparing different measurement approaches, e.g. for IHC, were performed with regard to reliability and validity.
The p-values emerging from these analyses are not to be interpreted in a confirmative sense; they are to be seen as a special descriptive tool in order to guide the exploration towards an efficient candidate prediction rule. Markers were evaluated on a univariate level regarding their potential for prediction (e.g. search for cut-offs) of the clinical endpoints. Further multivariate techniques (e.g. Linear Discriminant Analysis, Multiple Logistic Regression, Principal Component Analysis with Rotation, Cluster Analysis, CART methodology) were employed in order to study combinations of markers. Biomarker and response correlations with clinical covariates were investigated. Candidate groupings derived from biomarkers were checked with time to event variables (Kaplan-Meier curves, Cox proportional hazard model, logrank test).
The patient subset with samples for biomarker analysis was compared to the overall study population regarding baseline patient characteristics and clinical outcome parameters.
For determining correlation between pMAPK expression and clincal outcome, cut-off values were established by descriptive statistical analysis: Franklin H-score was determined by combining staining intensity and percentage of stained tumor cells (pMAPK_hsco=(pMAPK_Nuclear_Staining+1)*pMAPK_Nuclear_Pos_Cells; range: 0-400). “Positive” pMAPK staining was defined by H-scores of =/>100, else the staining was “negative”.
“Positive” pAKT staining was defined by H-scores of =/>300, else the staining was “negative”.

[3] = system: non-small-cell lung cancer (NSCLC); settings: single-agent erlotinib, second- or third-line therapy; placebo 4.7 months; statistically significant improvement; cited from earlier work
NSCLC = settings: erlotinib plus carboplatin and paclitaxel; cited from earlier work

## C#Cc1cccc(Nc2ncnc3cc(OCCOC)c(OCCOC)cc23)c1 [Tarceva®, N-(3-ethynylphenyl)-6,7-bis(2-methoxyethoxy) quinazolin-4-amine]
[1]
  Benefit on primary (survival duration) and secondary endpoints: no demonstrable benefit
[2]; "Positive pMAPK" patients (H-score =/>100), p: 0.0516
  HR, benefit from chemotherapy/Tarceva combo: 0.500
[2]; COX model without covariates, pAKT1 data set, trtgr only
  Hazard Ratio, time to progression/death: 1.269
[2]; COX model without covariates, pMAPK data set, trtgr only
  Hazard Ratio, time to progression/death: 1.320
[2]; COX model, trtgr in patients with pAKT1 H-Score ≧ 300
  Hazard Ratio, time to progression/death: 1.262
[2]; COX model, trtgr in patients with pMAPK H-Score < 100
  Hazard Ratio, time to progression/death: 1.634
[2]; COX model, trtgr in patients with pMAPK H-Score ≧ 100
  Hazard Ratio, time to progression/death: 0.773
[2]; Main clinical population, Tarceva + gemcitabine/cisplatin arm (N = 396)
  Responders (%): 42.4%
[2]; Patient subset with IHC/FISH biomarker data, Tarceva + gemcitabine/cisplatin arm (N = 46)
  Responders (%): 43.5%
[3]
  Survival: 6.7 months
NSCLC
  Outcome compared with TALENT (no benefit of adding erlotinib): Identical results

— patent US7655414B2, “Determination of responders to chemotherapy” (Hoffman La-Roche Inc., priority 2005, dated 2010)
